Target: T1, ROCKII or ROKα (Homo sapiens, UniProt O75116)
T1 construct: purchased Upstate 14-451
Assay: Determination of Rho kinase inhibition (33P-ATP Flash Plate assay)
Assay type: biochemical
Conditions: ATP 40 μM, respective form (salt or free base) as obtained in the examples
Procedure: Determination of Rho Kinase Inhibition
To measure Rho-kinase inhibition, IC50 values were determined according to the following protocol:
Buffer: 25 mM Tris pH7.5; 0.02% BSA; 5% Glycerol; 0.008% Triton X100; 2% DMSO, 1 mM DTT; 1 mM MgCl2; 0.5 μCi/well γ^33P ATP
Enzyme: ROCKII or ROKα) (Upstate, Catalog #14-451) 0.1 ng/μl
Final concentration of ATP in reaction mixture 40 μM
Biotinylated substrate, diluted to 0.25 μM with buffer described above (without ATP) • 1. 10 μl Tris buffer (±Inhibitor) • 2. Add 30 μL of enzyme solution • 3. Start the reaction with 30 μL of mix substrate/ATP/ATP33 • 4. Incubate for 20 min at room temperature • 5. Stop reaction with 30 μL of 50 mM EDTA • 6. Transfer 50 μL of stopped solution to Streptavidin Flash Plate plus, Perkin Elmer, SMP 103A • 7. Incubate for 30 min at RT • 8. Wash 4 times with 300 μl of PBS/0.1% Tween 20 • 9. Radioactivity in the well was determined
The following products/compounds were tested in said assay by using the respective form (salt or free base) obtained as in the examples described above and the following activities were measured.

T1 sequence (O75116 whole entry): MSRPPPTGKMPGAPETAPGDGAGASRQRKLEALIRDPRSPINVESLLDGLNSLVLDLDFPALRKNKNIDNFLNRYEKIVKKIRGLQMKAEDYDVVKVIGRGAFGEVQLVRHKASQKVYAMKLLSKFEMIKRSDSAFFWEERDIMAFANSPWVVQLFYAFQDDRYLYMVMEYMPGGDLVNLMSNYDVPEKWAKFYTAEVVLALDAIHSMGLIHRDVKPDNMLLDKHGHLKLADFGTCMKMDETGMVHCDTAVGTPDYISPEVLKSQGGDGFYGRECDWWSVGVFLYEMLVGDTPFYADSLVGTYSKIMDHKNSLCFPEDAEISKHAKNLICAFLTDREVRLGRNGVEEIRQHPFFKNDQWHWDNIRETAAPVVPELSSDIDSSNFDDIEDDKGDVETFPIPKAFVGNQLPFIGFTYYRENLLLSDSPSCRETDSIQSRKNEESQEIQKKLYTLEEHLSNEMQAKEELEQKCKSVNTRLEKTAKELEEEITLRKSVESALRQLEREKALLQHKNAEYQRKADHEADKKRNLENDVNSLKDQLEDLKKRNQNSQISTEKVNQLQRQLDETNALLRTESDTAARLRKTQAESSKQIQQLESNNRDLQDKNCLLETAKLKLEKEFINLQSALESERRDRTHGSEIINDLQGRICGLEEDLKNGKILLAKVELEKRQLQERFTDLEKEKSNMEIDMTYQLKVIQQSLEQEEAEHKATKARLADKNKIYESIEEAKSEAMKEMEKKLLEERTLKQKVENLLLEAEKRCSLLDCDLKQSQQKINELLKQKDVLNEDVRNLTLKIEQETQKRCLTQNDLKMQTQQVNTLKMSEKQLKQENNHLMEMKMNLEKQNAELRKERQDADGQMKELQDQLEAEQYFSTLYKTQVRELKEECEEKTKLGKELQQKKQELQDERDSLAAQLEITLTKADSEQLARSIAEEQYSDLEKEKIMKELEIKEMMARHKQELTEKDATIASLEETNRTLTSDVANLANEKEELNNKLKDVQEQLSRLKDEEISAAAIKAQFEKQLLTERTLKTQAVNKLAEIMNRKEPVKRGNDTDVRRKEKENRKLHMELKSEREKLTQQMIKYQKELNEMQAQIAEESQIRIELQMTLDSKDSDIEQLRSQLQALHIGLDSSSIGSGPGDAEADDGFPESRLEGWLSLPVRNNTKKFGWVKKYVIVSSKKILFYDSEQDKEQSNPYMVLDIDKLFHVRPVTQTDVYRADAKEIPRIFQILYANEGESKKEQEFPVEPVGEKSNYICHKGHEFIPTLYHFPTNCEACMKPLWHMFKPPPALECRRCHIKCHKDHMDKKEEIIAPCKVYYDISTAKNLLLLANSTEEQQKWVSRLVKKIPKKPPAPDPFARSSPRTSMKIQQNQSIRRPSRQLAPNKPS

pIC50	SMILES
+++++ (6.0≦pIC50)	O=c1[nH]ccc2cc(O[C@H]3CC[C@@H](NCC4CC4)CC3)ccc12 [Example 125, 6-[cis-4-(Cyclopropylmethyl-amino)-cyclohexyloxy]-2H-isoquinolin-1-one]
+++++ (6.0≦pIC50)	CCCCN[C@H]1CC[C@@H](Oc2ccc3c(=O)[nH]ccc3c2Cl)CC1 [Example 45]
+++++ (6.0≦pIC50)	CCN[C@H]1CC[C@@H](Oc2cc3cc[nH]c(=O)c3cc2Cl)CC1 [Example 29]
+++++ (6.0≦pIC50)	O=c1[nH]ccc2c(Cl)c(O[C@H]3CC[C@@H](NCC4CC4)CC3)ccc12 [Example 48]
++++ (5.0≦pIC50<6.0)	O=c1[nH]ccc2cc(O[C@H]3CC[C@H](N(CC4CC4)CC4CC4)CC3)c(Cl)cc12 [Example 66]
+++++ (6.0≦pIC50)	CC(C)CN(CC(C)C)[C@H]1CC[C@H](Oc2cc3cc[nH]c(=O)c3cc2Cl)CC1 [Example 65]
+++++ (6.0≦pIC50)	O=c1[nH]ccc2cc(O[C@H]3CC[C@@H](NCc4ccccc4)CC3)c(Cl)cc12 [Example 67]
+++++ (6.0≦pIC50)	N[C@H]1CC[C@@H](Oc2ccc3c(=O)[nH]ccc3c2Cl)CC1 [Example 11, 6-(cis-4-Amino-cyclohexyloxy)-5-chloro-2H-isoquinolin-1-one]
+++++ (6.0≦pIC50)	O=c1[nH]ccc2cc(O[C@H]3CC[C@@H](NCc4cccc(Cl)c4)CC3)c(Cl)cc12 [Example 37]
+++++ (6.0≦pIC50)	O=c1[nH]ccc2cc(O[C@H]3CC[C@@H](NCc4ccc5ccccc5c4)CC3)c(Cl)cc12 [Example 77]
+++++ (6.0≦pIC50)	CCCN[C@H]1CC[C@@H](Oc2ccc3c(=O)[nH]ccc3c2Cl)CC1 [Example 44]
+++++ (6.0≦pIC50)	N[C@H]1CC[C@@H](Oc2cc3cc[nH]c(=O)c3cc2Cl)CC1 [Example 10, 6-(cis-4-Amino-cyclohexyloxy)-7-chloro-2H-isoquinolin-1-one]
+++++ (6.0≦pIC50)	CCN(CC)[C@H]1CC[C@H](Oc2cc3cc[nH]c(=O)c3cc2Cl)CC1 [Example 56]
+++++ (6.0≦pIC50)	N[C@H]1CC[C@H](Oc2ccc3c(=O)[nH]ccc3c2)CC1 [Example 20, trans-6-(4-Amino-cyclohexyloxy)-2H-isoquinolin-1-one]
+++++ (6.0≦pIC50)	O=c1[nH]ccc2cc(O[C@H]3CC[C@@H](NCc4cc(Cl)ccc4Cl)CC3)c(Cl)cc12 [Example 70]
+++++ (6.0≦pIC50)	O=c1[nH]ccc2cc(O[C@H]3CC[C@@H](NCc4cc(Cl)cc(Cl)c4)CC3)c(Cl)cc12 [Example 69]
+++++ (6.0≦pIC50)	CC(C)N[C@H]1CC[C@@H](Oc2ccc3c(=O)[nH]ccc3c2Cl)CC1 [Example 46]
+++++ (6.0≦pIC50)	CCCCN[C@H]1CC[C@H](Oc2cc3cc[nH]c(=O)c3cc2Cl)CC1 [Example 58]
+++++ (6.0≦pIC50)	Cc1cc2c(=O)[nH]ccc2cc1O[C@H]1CC[C@H](N)CC1 [Example 137, 6-(trans-4-Amino-cyclohexyloxy)-7-methyl-2H-isoquinolin-1-one]
++++ (5.0≦pIC50<6.0)	CCCCN(CCCC)[C@H]1CC[C@@H](Oc2ccc3c(=O)[nH]ccc3c2Cl)CC1 [Example 53]
+++++ (6.0≦pIC50)	O=c1[nH]ccc2cc(O[C@H]3CC[C@@H](NCc4ccc(Cl)cc4Cl)CC3)c(Cl)cc12 [Example 71]
+++++ (6.0≦pIC50)	N[C@H]1CC[C@H](Oc2cc3cc[nH]c(=O)c3cc2Cl)CC1 [Example 14, 6-(trans-4-Amino-cyclohexyloxy)-7-chloro-isoquinolin-1-ol]
+++++ (6.0≦pIC50)	Cc1cc2c(=O)[nH]ccc2cc1O[C@H]1CC[C@@H](N)CC1.Cl [Example 138, 6-(cis-4-Amino-cyclohexyloxy)-7-methyl-2H-isoquinolin-1-one]
+++++ (6.0≦pIC50)	O=c1[nH]ccc2cc(O[C@H]3CC[C@@H](NC4CC4)CC3)c(Cl)cc12 [Example 12, 7-Chloro-6-(cis-4-cyclopropylamino-cyclohexyloxy)-2H-isoquinolin-1-one]
+++++ (6.0≦pIC50)	O=c1[nH]ccc2cc(O[C@H]3CC[C@@H](N(C4CC4)C4CC4)CC3)c(Cl)cc12 [Example 13, 7-Chloro-6-(cis-4-dicyclopropylamino-cyclohexyloxy)-2H-isoquinolin-1-one]
+++++ (6.0≦pIC50)	O=c1[nH]ccc2cc(O[C@H]3CC[C@@H](N(CC4CC4)CC4CC4)CC3)c(Cl)cc12 [Example 41]

From patent US8796458B2, “Cyclohexylamine isoquinolone derivatives” (Sanofi, priority 2005, dated 2014)
